Columns and labels:
[1] = test system: Salmonella typhimurium TA102; assay: Salmonella typhimurium reverse mutation test, TA102; assay type: cell-based; design: key: + indicates a positive mutagenic result; − indicates a negative mutagenic result
Description: (§1) The revived strains or a single colony from the master plate were inoculated into the broth, and cultured in a thermostat gas bath vibrator at 100 to 120 rpm and 37±1° C. for 10 to 16 hours, marked and stored for later use. The bottom agar medium (containing an appropriate amount of agar, Vogel-Bonner buffer, 20% glucose solution and 20% magnesium sulfate solution) was poured into a six-well plate, approximately […] into each well, and allowed to cool and solidify naturally, marked each well and stored for later use.
(§2) Three wells were set up in each group for parallel experiments. The top agar medium was sterilized under high pressure and kept warm at about 65° C. In each test tube, 0.1 mL of negative control (DMSO) or positive control or test sample, 0.1 mL of bacterial solution suspension, 0.5 mL of phosphate buffer (0.2M PBS) (−S9) or 0.5 mL of S9 mixed solution (+S9) and 2.5 mL top culture medium were added, after vortex mixing, and then quickly and evenly spread on the culture dish which was already spreaded with the bottom agar medium. After natural cooling and solidification, the culture dish was inverted and placed in a 37° C. incubator for 48 to 72 hours. After culturing for 48 to 72 hours, the culture dish was taken out, and the number of revertant colonies in each well was counted, the growth background was observed under a microscope to determine whether there was antibacterial or bactericidal activity, and the experimental results were recorded.

[2] = Exposure determination in beagle dogs; assay type: in vivo; details: dog, single oral gavage 4.5 mg/kg, plasma
Description: • 1. Experimental purpose: The purpose of this test is to test the exposure of the compound in beagle dogs • 2. Experimental methods: Beagle dogs were housed with a standard light cycle (12 hours light/12 hours dark), at a room temperature of 18-26° C. and a relative humidity of 40-70%, with free access to water and normal diet. Five days prior to the study, the beagle dogs were randomly assigned to groups based on their body weight for the study, including an oral administration group (n=3/group). The administration volume was calculated according to the weight of the animals on the day of administration, and the administration volume was 5 mL/kg, the single oral gavage administration was performed at a dose of 4.5 mg/kg, and the solvent was 1% HEC and 0.25% Tween 80 in Water. Blood was collected from the forelimb vein or other suitable veins at 0.5 h, 1 h, 2 h, 4 h, 6 h, 8 h, 12 h, 24 h, 48 h, 72 h and 96 h after administration. About 1 mL of each sample was collected, K2-EDTA anticoagulated, placed on ice after collection, and within 1 hour, centrifuged to separate plasma (centrifugation conditions: 2200 g, 10 minutes, 2-8° C.) for blood drug concentration detection.

[3] = Bioavailability determination in cynomolgus monkeys; assay type: in vivo; details: cynomolgus monkey, plasma, 1 mg/kg intravenous and 7.5 mg/kg oral gavage, read-out: bioavailability F
Description: • 1. Experimental purpose: The purpose of this test is to test the bioavailability of the compound in cynomolgus monkeys • 2. Experimental methods: The cynomolgus monkeys were housed with a standard light cycle (12 hours light/12 hours dark), at a room temperature of 18-26° C. and a relative humidity of 40-70%, with free access to water and normal diet. Five days prior to the study, the cynomolgus monkeys were randomly assigned to an intravenous administration group and an oral administration group (n=2/group) on their body weight for the study. The administration volume was calculated according to the body weight of the animals on the day of administration, and the administration volume was 2 mL/kg, the single intravenous administration was performed at a dose of 1 mg/kg, and the solvent was 5% DMSO, 5% Solutol, and 90% Saline. Blood was collected from the forelimb vein or other suitable veins at 0.083 h, 0.25 h, 0.5 h, 1 h, 2 h, 4 h, 6 h, 8 h, 12 h, 24 h, 48 h and 72 h after administration. The administration volume was calculated according to the weight of the animals on the day of administration, and the administration volume was 5 mL/kg, the single oral gavage administration was performed at a dose of 7.5 mg/kg, and the solvent was 1% HEC and 0.25% Tween 80 in Water. […]

[4] = test system: Salmonella typhimurium TA1535; assay: Salmonella typhimurium reverse mutation test, TA1535; assay type: cell-based; design: key: + indicates a positive mutagenic result; − indicates a negative mutagenic result
Description: as §1, §2

hERG potassium channel = target: T1, hERG potassium channel (Homo sapiens, UniProt Q12809); assay: hERG whole-cell patch clamp experiment; assay type: cell-based; details: HEK-293 cells that express hERG, HEK-293-hERG cell, read-out: inhibition rate
T1 construct: expressed in transfected cells; host or cells: HEK-293-hERG cells
Description: • 1. Experimental purpose: The purpose of this test is to test the inhibition rate of the compounds on the hERG potassium channel • 2. Experimental methods: The hERG current was recorded using the whole-cell patch clamp technique. A suspension of HEK-293-hERG cell was added to a small culture dish and placed on an inverted microscope stage. After the cells adhered to the dish, extracellular fluid was perfused at a flow rate of 1-2 mL/minute. The glass microelectrode was pulled in two steps by a microelectrode puller, after the electrode was filled with internal fluid, its water resistance was 2-5 MΩ. After establishing the whole-cell recording mode, the holding potential was maintained at −80 mV. A depolarizing voltage to +60 mV was applied for 850 ms, and then followed by repolarization to −50 mV for 1275 ms to elicit the hERG tail current. This set of pulse programs was repeated every 15 seconds throughout the experiment. After the current stabilized, the test compound was administered via continuous extracellular perfusion from low concentration to high concentration. Starting from a low concentration, perfusion was continued until the drug effect was stable, and then the next concentration was perfused.

T1 sequence (Q12809 whole entry): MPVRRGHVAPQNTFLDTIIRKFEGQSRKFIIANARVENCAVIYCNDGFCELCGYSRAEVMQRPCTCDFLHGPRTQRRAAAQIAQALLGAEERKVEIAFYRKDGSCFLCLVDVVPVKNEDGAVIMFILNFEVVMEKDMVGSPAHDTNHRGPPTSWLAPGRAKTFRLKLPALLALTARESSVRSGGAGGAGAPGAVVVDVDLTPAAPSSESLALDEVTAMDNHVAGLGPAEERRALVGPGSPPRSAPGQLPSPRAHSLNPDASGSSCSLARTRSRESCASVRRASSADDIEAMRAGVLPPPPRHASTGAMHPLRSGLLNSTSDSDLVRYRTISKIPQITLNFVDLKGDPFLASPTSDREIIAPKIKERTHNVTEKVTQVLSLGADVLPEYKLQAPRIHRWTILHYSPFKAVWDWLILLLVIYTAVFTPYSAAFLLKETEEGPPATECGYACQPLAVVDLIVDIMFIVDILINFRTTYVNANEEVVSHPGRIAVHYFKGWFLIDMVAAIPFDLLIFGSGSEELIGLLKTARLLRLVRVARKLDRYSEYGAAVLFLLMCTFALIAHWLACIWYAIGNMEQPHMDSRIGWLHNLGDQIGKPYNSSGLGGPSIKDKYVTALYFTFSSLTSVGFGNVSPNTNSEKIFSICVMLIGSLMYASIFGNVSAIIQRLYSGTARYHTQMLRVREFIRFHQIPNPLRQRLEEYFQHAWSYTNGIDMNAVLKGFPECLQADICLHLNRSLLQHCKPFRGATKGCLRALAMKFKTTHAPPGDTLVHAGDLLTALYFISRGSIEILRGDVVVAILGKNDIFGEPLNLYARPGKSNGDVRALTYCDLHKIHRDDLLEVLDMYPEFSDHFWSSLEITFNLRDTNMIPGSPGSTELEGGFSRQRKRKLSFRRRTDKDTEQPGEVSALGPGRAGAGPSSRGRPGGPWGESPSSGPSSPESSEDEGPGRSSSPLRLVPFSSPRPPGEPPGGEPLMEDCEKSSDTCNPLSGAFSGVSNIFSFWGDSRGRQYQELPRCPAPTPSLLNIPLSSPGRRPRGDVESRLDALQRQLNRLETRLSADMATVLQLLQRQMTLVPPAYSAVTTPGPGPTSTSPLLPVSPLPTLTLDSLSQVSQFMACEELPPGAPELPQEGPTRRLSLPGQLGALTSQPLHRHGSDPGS

Row | SMILES | mutagenicity ([1]; TA102, +S9, 62 μg/dish) | mutagenicity ([1]; TA102, +S9, 185 μg/dish) | mutagenicity ([1]; TA102, +S9, 556 μg/dish) | mutagenicity ([1]; TA102, +S9, 1667 μg/dish) | mutagenicity ([1]; TA102, +S9, 5000 μg/dish) | mutagenicity ([1]; TA102, −S9, 62 μg/dish) | mutagenicity ([1]; TA102, −S9, 185 μg/dish) | mutagenicity ([1]; TA102, −S9, 556 μg/dish) | mutagenicity ([1]; TA102, −S9, 1667 μg/dish) | mutagenicity ([1]; TA102, −S9, 5000 μg/dish) | AUC(0-inf) [2] [ng·h/mL] | bioavailability [3] [%] | mutagenicity ([4]; TA1535, +S9, 62 μg/dish) | mutagenicity ([4]; TA1535, +S9, 185 μg/dish) | mutagenicity ([4]; TA1535, +S9, 556 μg/dish) | mutagenicity ([4]; TA1535, +S9, 1667 μg/dish) | mutagenicity ([4]; TA1535, +S9, 5000 μg/dish) | mutagenicity ([4]; TA1535, −S9, 62 μg/dish) | mutagenicity ([4]; TA1535, −S9, 185 μg/dish) | mutagenicity ([4]; TA1535, −S9, 556 μg/dish) | also measured
1 | O=C(O)[C@@H](Cc1cccc(CN(Cc2cccc(C[C@H](C(=O)O)[C@H]3CCNC3)c2)Cc2cccc(C[C@H](C(=O)O)[C@H]3CCNC3)c2)c1)[C@H]1CCNC1 [Comparative Example 1, reference compound] | − | − | − | − | − | − | − | − | − | − | 37400 | 10.2 | − | − | − | − | − | − | − | − | mutagenicity ([4]; TA1535, −S9, 1667 μg/dish): −; mutagenicity ([4]; TA1535, −S9, 5000 μg/dish): −; inhibition at 0.3 µM (hERG potassium channel): 7.37%; inhibition at 1 µM (hERG potassium channel): 24.6%; inhibition at 3 µM (hERG potassium channel): 29.2%
2 | O=C(O)[C@@H](Cc1cccc(CN(Cc2cccc(C[C@H](C(=O)O)[C@H]3CCNC3)c2)C(=O)c2cccc(C[C@H](C(=O)O)[C@H]3CCNC3)c2)c1)[C@H]1CCNC1 [Example 5] | − | − | − | − | − | − | − | − | − | − | 119000 | 16.8 | − | − | − | − | − | − | − | − | mutagenicity ([4]; TA1535, −S9, 1667 μg/dish): −; mutagenicity ([4]; TA1535, −S9, 5000 μg/dish): −; inhibition at 0.3 µM (hERG potassium channel): -0.06%; inhibition at 1 µM (hERG potassium channel): 3.47%; inhibition at 3 µM (hERG potassium channel): 3.67%

Reference: patent US20260234125A1, “CYCLIC AMINE DERIVATIVE, AND COMPOSITION AND USE THEREOF” (SHANGHAI JINGXIN BIOMEDICAL CO., LTD., priority 2023, published 2026)
